Data: PMC11211491, “Design of a covalent protein-protein interaction inhibitor of SRPKs to suppress angiogenesis and invasion of cancer cells” (Communications Chemistry, 2024)
Square brackets hold non-standard residues; d marks the D form. Peptide text beside a SMILES is read from it. * marks the point of attachment. Benzoyl(4-SO2F) = O=C(c1ccc(S(=O)(=O)F)cc1)*; Dap = NC[C@H](N)C(=O)O

Tests used:
SRPK1ΔNS3 = conditions: quoted for comparison, earlier work on DBS1; read-out: Kd of DBS1 for SRPK1; cited from earlier work
Description: Because DBS1 targets the docking groove of SRPK, we tested the specificity of C-DBS toward the same binding site. We performed fluorescence polarization (FP) assay to examine the direct noncovalent interaction between C-DBS and SRPK1ΔNS3, as well as the docking groove mutant SRPK1ΔNS3_DM that contains alanine substitutions at four docking groove residues—D548, D564, E571, and K615—that are essential for the binding and phosphorylation of the substrate (Fig. 2a)[11],[12],[36].

A549 cells = test: Cellular uptake and endo/lysosomal escape (confocal microscopy); assay type: cell-based, human
Method: A549 cells (20 × 10^4 per well) were seeded into confocal dishes (SPL Life Sciences) and incubated for adhesion overnight at 37 °C in 5% CO2. 6-FAM-labeled C-DSB or control peptide was diluted to Opti-MEM medium (Gibco) and added to the cells for 24-h incubation. C-DBS was washed with PBS containing 20 U/mL heparin (Sigma-Aldrich) and stained with 40 μM Hoechst 33342 (Life Technologies) and 5 μg/mL Wheat Germ Agglutinin Alexa Fluor 647 Conjugate (Life Technologies) for 20 min. After removing excess dye, cell images were captured by the Leica TCS SP8 Confocal Microscope System. To detect the endo/lysosomal escape of C-DBS, 50 nM Lysotracker Red (Life Technologies) was used to stain the endo/lysosomes. Fluorescence intensity profiles of the region of interest (ROI) were analyzed using ImageJ software.

A549 = test: Cell viability assay (MTT); assay type: cell-based, human; conditions: A549, up to 100 μM, 24 h
Method: (§1) Cells (6 × 10^3 per well) were seeded into a 96-well plate. After overnight incubation, cells were treated with different concentrations of C-DBS for 24 h. The viability of the cells was determined using 3-(4,5-dimethylthiazol-2-yl)-2,5-diphenyltetrazolium bromide (MTT) (Roche). Absorption at 570 nm was measured using a microplate reader (BMG, CLARIOstar) according to the manufacturer’s instructions.

HEK-293 = test: Cell viability assay (MTT); assay type: cell-based, human; conditions: HEK-293, up to 100 μM, 24 h
Method: as §1

HeLa = test: Cell viability assay (MTT); assay type: cell-based, human; conditions: up to 100 μM, 24 h
Method: as §1

MDA-MB-231 = test: Cell viability assay (MTT); assay type: cell-based, human; conditions: MDA-MB-231, up to 100 μM, 24 h
Method: as §1

Compound | Kd (SRPK1ΔNS3) | cellular uptake (A549 cells; A549, 10 μM FAM-labeled peptide, 24 h, Opti-MEM, confocal fluorescence microscopy) | endo/lysosomal trapping after internalization (A549 cells; A549, LysoTracker Red, 1.5 or 24 h incubation) | cytotoxicity (MTT) (A549) | cytotoxicity (MTT) (HEK-293) | cytotoxicity (MTT) (HeLa) | cytotoxicity (MTT) (MDA-MB-231)
RERARTRRE^9RARTRERARTR [DBS1] | 3.2 ± 1.5 µM | – | – | – | – | – | –
CC(=O)N[C@@H](CCCNC(=N)N)C(=O)N[C@@H](CCC(=O)O)C(=O)N[C@@H](CCCNC(=N)N)C(=O)N[C@@H](C)C(=O)N[C@@H](CCCNC(=N)N)C(=O)N[C@H](C(=O)N[C@@H](CCCNC(=N)N)C(=O)N[C@@H](CCCNC(=N)N)C(=O)N[C@@H](CNC(=O)c1ccc(S(=O)(=O)F)cc1)C(=O)N[C@@H](CCCNC(=N)N)C(=O)N[C@@H](C)C(=O)N[C@@H](CCCNC(=N)N)C(=O)N[C@H](C(=O)N[C@@H](CCCNC(=N)N)C(=O)N[C@@H](CCC(=O)O)C(=O)N[C@@H](CCCNC(=N)N)C(=O)N[C@@H](C)C(=O)N[C@@H](CCCNC(=N)N)C(=O)N[C@H](C(=O)N[C@@H](CCCNC(=N)N)C(N)=O)[C@@H](C)O)[C@@H](C)O)[C@@H](C)O [C-DBS] (Ac-RERARTRR[Dap](Benzoyl(4-SO2F))RARTRERARTR-NH2) | – | readily internalized by the A549 cells | not trapped in endolysosomal compartments after internalization | no cytotoxicity | no cytotoxicity | no cytotoxicity | no cytotoxicity
